Test results as given in patent publication US20250100997A1, “PYRIDAZINYL AMINO DERIVATIVES AS ALK5 INHIBITORS” (CHIESI FARMACEUTICI S.P.A., priority 2022, published 2025).

Target: T1, human ALK5 (recombinant TGF β1 N-term GST-tagged, 80-end) (Homo sapiens, UniProt P36897)
T1 construct: human ALK5 (recombinant TGF β1 N-term GST-tagged, 80-end); GST (N); purchased
T1 sequence (P36897 80-503 limits assumed): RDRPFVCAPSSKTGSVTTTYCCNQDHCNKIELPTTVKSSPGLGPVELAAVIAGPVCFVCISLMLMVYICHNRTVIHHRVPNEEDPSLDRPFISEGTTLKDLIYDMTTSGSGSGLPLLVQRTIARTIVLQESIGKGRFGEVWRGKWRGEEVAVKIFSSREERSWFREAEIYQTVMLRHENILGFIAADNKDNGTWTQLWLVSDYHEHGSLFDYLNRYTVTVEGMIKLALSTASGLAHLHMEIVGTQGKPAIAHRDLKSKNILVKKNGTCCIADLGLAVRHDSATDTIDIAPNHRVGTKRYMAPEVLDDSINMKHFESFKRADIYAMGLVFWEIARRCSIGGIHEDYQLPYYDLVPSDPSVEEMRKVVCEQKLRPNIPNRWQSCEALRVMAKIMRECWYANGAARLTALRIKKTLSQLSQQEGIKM
Assay: ADP-GLO kinase assay, biochemical ALK5 assay
Conditions: pIC50 converted to pKi using the Cheng-Prusoff equation, ATP at Km, or high ATP (30-fold Km) for very potent compounds, 25° C.
Procedure: The enzymatic activity of compounds of the present invention was monitored measuring the formation of ADP using the ADP-GLO Kinases assay. Following the incubation of the purified enzyme, a substrate and ATP, the produced ADP was converted into ATP, which in turn was converted into light by Ultra-Glo Luciferase. The luminescent signal positively correlated with ADP amount and kinase activity. Briefly, the kinase reaction was performed by incubating 2.6 nM of the purified, commercially available human ALK5 (recombinant TGF β1 N-term GST-tagged, 80-end), a final concentration of TGFβ1 peptide 94.5 μM (Promega, T36-58) and ultra-pure ATP (Promega V915B). The ATP concentration was set at the Km value (concentration of substrate which permits the enzyme to achieve half maximal velocity (Vmax)) of ALK5 (0.5 μM). Compound and ALK5 kinase were mixed and incubated for 15 mins. Reactions were initiated by addition of ATP at a final concentration in the assay of […]. After an incubation of 120 min, the reaction was stopped, and ADP production detected with ADP-Glo kit according to manufacturer's indications. To overcome the assay wall limit for very potent compounds the assay protocol was changed by using a high ATP concentration (30-fold Km). Compounds and ALK5 kinase were mixed for 15 min and the reaction initiated by addition of TGFβ1 peptide and ATP at a final concentration in the assay of 15 μM. After an incubation of 60 min, the kinase reaction was stopped, and ADP production detected with ADP-Glo kit according to manufacturer's indications.
All reaction and incubation steps were performed at 25° C. and the assays were performed in 384-well format and validated using a selection of reference compounds tested in 11-point concentration-response curve.
Results were expressed as pIC50 (negative logarithm of IC50) and subsequently converted to pKi (negative logarithm of […]) using the Cheng-Prusoff equation. The higher the value of pKi, the greater the inhibition of ALK5 activity.

SMILES | Ki [nM]
CN1CCN(CCC(=O)Nc2cc(Nc3cc(-c4cc(Cl)ccc4F)nnc3C3CC(=O)N(C)C3)ccn2)CC1 (centres unmarked) [Example 23, N-(4-((6-(5-chloro-2-fluorophenyl)-3-(1-methyl-5-oxopyrrolidin-3-yl)pyridazin-4-yl)amino)pyridin-2-yl)-3-(4-methylpiperazin-1-yl)propanamide] | 1 to 3.16
Fc1ccc(Cl)cc1-c1cc(Nc2ccc3ncsc3c2)c(C2=CCNCC2)nn1 [Example C1, N-[6-(5-chloro-2-fluorophenyl)-3-(1,2,3,6-tetrahydropyridin-4-yl)pyridazin-4-yl]-1,3-benzothiazol-6-amine, reference compound] | 60.3
